From patent US20240342111A1, “ISOMER-SPECIFIC NEUROPROTECTIVE EFFECT OF NATURAL RESERVATROL” (priority 2021, published 2024)

Legend:
[1] = tested on: Rat cortical neurons transfected with TyrRS siRNA; assay: TyrRS siRNA knockdown, then excitotoxic NMDA, MTT assay; type: cell-based; settings: 24 hours
Method: Cells viability was assessed using MTT assay. […] Cells were then exposed to excitotoxic NMDA (500 μM for 5 minutes), and viability was assessed using MTT assay after 24 hours.
Primary cortical neuron cultures were obtained from E18 Sprague Dawley rats' cortices, which were dissected in Hibernate E (BrainBits) and dissociated using the Neural Tissue Dissociation kit (Miltenyi Biotec). For this, minced cortices were incubated in a pre-warmed enzyme mix at 37° C. for 15 min; tissues were then triturated and strained using a 40 μm cell strainer. After washing and centrifugation, neurons were seeded in 50 μg/ml poly-D-Lysine (Sigma Aldrich) coated tissue culture plates. NBActive-1 medium (BrainBits) supplemented with 100 U/ml of Penicillin-Streptomycin (Life Technologies), 2 mM L-Glutamine (Life Technologies), and 1 X N21 supplement (R&D Systems) was used as culture medium. Control (AM4635), TyrRS (s443), PARP1 (s130207) siRNA for transfection were obtained from Invitrogen. On 5 DIV, rat cortical neurons were transfected with 75 nM control or TyrRS siRNA using Dharmafect 3 Transfection Reagent. A second transfection was done two days later using 75 nM of TyrRS siRNA, followed by cell collection or assays after another 48 hours. For PARP1 siRNA, on 7 DIV, neurons were transfected with 75 nM siRNA for both control and PARP1 siRNA.
Rat cortical neurons (DIV 10-11) were exposed to different treatments after seeding 20,000 cells/well in 96-well plates. Cell viability was then assessed at 48 hours after the initial exposure to NMDA. 3-[4,5-dimethylthiazole-2-yl]-2,5-diphenyltetrazolium bromide (MTT) assays were used to assess change in cell viability. Cultured rat cortical neurons were incubated with MTT (0.5 mg/mL). […] The percentage of MTT reduced as measured by the difference between the absorbances at 570 nm read in a spectrophotometer (Spectramax 190R Molecular Devices, UK). The percentage of reduction of MTT was calculated comparing the difference of the absorbance at 570 of each sample. […]

Cortical neurons = assay: Aβ-induced neurite degeneration (MAP2 immunostaining); type: cell-based, rat; settings: for Aβ-induced neurotoxicity (neurite degeneration): pre-treated 50 μM 16 hours, then Aβ 50 nM 24 hours
Method: Cells were then exposed to excitotoxic NMDA (500 μM for 5 minutes) and viability was assessed using MTT assay after 24 hours. […] Rat cortical neurons (DIV 9) were treated with NMDA (50 μM for 5 minutes) and then with cis-RSV for 24 hours. Cells were then exposed to excitotoxic NMDA (500 μM for 5 minutes) and viability was assessed using MTT assay after 24 hours. […] Cell viability was assessed after 48 hours. […] Representative images (scale bar, 20 μm) for cortical neurons following neurite degeneration (MAP2—neurite marker, magenta and DAPI—nuclear marker, blue). […] Neurons were immunoassayed with anti-MAP2 antibody and quantified for neurite degeneration. The data represents mean±SEM for n=3 experiments with significance measured using Student's paired t-test.
Amyloid Beta oligomers were prepared as described previously, see Ahmed, M. et al. Structural conversion of neurotoxic amyloid-beta (1-42) oligomers to fibrils. Nat Struct Mol Biol 17, 561-567, doi:10.1038/nsmb.1799 (2010) and Wang, X. et al. Elevated Neuronal Excitability Due to Modulation of the Voltage-Gated Sodium Channel Nav1.6 by A beta (1-42). Front Neurosci-Switz 10, doi:ARTN 94 10.3389/fnins.2016.00094 (2016). […]
Neurite degeneration index was calculated as described previously, see Jin, M. et al. Soluble amyloid beta-protein dimers isolated from Alzheimer cortex directly induce Tau hyperphosphorylation and neuritic degeneration. […] The samples to be analyzed for neurite degeneration were stained using the standard immunofluorescence procedure with MAP2 (Alexa fluor 647) for neurites and DAPI staining for the nucleus. Neurite degeneration quantification was done using 5-6 regions of interest of equal sizes from each treatment condition. […] To detect degenerated neurites, we used the particle analyzer module of ImageJ and calculated the percentage of the area of the small fragments or particles (size=3-10 μm^2) to the intact neurites (size>25 μm2) with information derived from the binary images. A degeneration index (DI) was calculated as the fragmented neurite area ratio over intact neurite area. […]

TyrRS = assay: Immunostaining of neuronal TyrRS under neurotoxic agents (NMDA, MPP+); type: cell-based, rat; settings: 50 μM in combination with 50 μM NMDA or 100 μM MPP+, 4 hours
tau = assay: Immunostaining of phospho-tau (pSer404-tau); type: cell-based, rat; settings: 25 μM, 16 hours
PARP1 = assay: Immunoblot for auto-PARylation of PARP1; type: cell-based, rat; settings: 15 minutes
[2] = Spectral analysis (absorption spectrum) of cis- and trans-RSV conformation in solution; type: physicochemical; settings: for peak absorption: lower concentrations (≤10 μM), range 250-400 nm
Method: Nature 519, 370-373, doi:10.1038/nature14028 (2015). […] Mol Nutr Food Res 63, e1800715, doi:10.1002/mnfr.201800715 (2019). […] Commercially available cis- and trans-RSV were dissolved in ethanol to generate the stock solutions. […] The dilutions were done in the dark and samples were protected from light. […] Low dose trans-RSV evokes a paradoxical shift in equilibrium towards the cis conformation in solution.
Each stock was diluted 1000× in DMSO to prepare different stocks to obtain the final working solutions and micromolar concentrations to obtain the absorption spectrum. The control solution was prepared using ethanol and DMSO (0.1% ethanol). Absorption was measured using Spectramax 300R at room temperature. Stock solutions were stored at −20° C., and the working solutions were prepared fresh and protected from light during the preparation.

Row | Compound | effect of TyrRS knockdown on viability under excitotoxic NMDA ([1]; low dose trans-RSV 5, 10 μM) | effect of TyrRS knockdown on toxic effects under excitotoxic NMDA ([1]; trans-RSV 50 μM) | neurotoxicity (neurite degeneration) by itself (Cortical neurons; 50 μM, without Aβ) | Aβ-induced neurotoxicity (neurite degeneration) (Cortical neurons) | neurotoxicity-mediated downregulation of neuronal TyrRS (TyrRS) | phosphorylation level of tau (p-tau, pSer404) (tau) | auto-PARylation of PARP1 (PARP1; higher dose ≥25 μM) | auto-PARylation of PARP1 (PARP1; low dose 5 μM) | specific absorption peak [2] [nm] | conformation in solution ([2]; concentrations ≤10 μM, in DMSO, protected from light) | conformation in solution ([2]; high dose (≥25 μM)) | peak absorption [2] [nm] | effect of TyrRS knockdown on viability under excitotoxic NMDA ([1]; cis-RSV 50 μM) | auto-PARylation of PARP1 (PARP1; cis-RSV) | conformation in solution ([2]; cis-RSV, 5-50 μM)
1 | Oc1ccc(/C=C/c2cc(O)cc(O)c2)cc1 [trans-RSV, trans-resveratrol] | blunted the neuroprotective effect | exacerbated the toxic effects | itself induced neurotoxicity | exacerbating Aβtoxicity | exacerbated the downregulation | significantly upregulated the level of p-tau | downregulated the auto-PARylation of PARP1 | stimulated the auto-PARylation of PARP1 | 330 | exists majorly in cis-RSV conformation | retains its trans conformation | 295 | – | – | –
2 | Oc1ccc(/C=C\c2cc(O)cc(O)c2)cc1 [cis-RSV, cis-resveratrol] | – | – | – | protected against Aβtoxicity | protected against the downregulation of neuronal TyrRS | significantly downregulated the phosphorylation level of tau (p-tau) | – | – | 295 | – | – | 295 | blunted the neuroprotective effect | stimulated the auto-PARylation of PARP1 | retains its conformation across the different doses
